How the values were obtained:
goldfish = experiment: Fish growth in home aquariums; assay type: in vivo; details: SG Gas bubbled into aquarium for thirty days vs air
Text: Fish Growth: Two home aquariums were used to hold two respective groups of goldfish. SG Gas was bubbled into one aquarium and the second with air for a period of thirty days.

pH test = assay type: physicochemical; details: distilled water infused with SG Gas (distilled water pH 6.8)
[1] = Total Dissolved Solids after infusion; assay type: physicochemical; details: after infusion of SG Gas into distilled water for approximately 11 minutes (start 0.33 ppm)
Text: The resulting ionized or polarized water (“SG Gas-infused Water”) clings longer to a magnet when compared to that of regular water. Absorption over time or saturation graphs to monitor changes in the water properties infused with SG Gas including capacitance levels may be prepared. […] Other measurement: Total Dissolved Solids (TDS) dropped from a start of 0.33 ppm in untreated distilled water to a finish of 0.17 ppm after infusion of SG Gas into distilled water for a period of approximately 11 minutes. A Fluke 189True RMS Multimeter was used to measure drop in capacitance.

[2] = Storage of SG Gas in water; assay type: physicochemical; details: polarized water with SG Gas treatment
Text: Storage of SG Gas in Water: The resulting polarized water with SG Gas treatment remains stable and can be stored for 2 years or more. The actual maximum storage time has yet to be observed but in theory, SG Gas should remain permanently stable in the water.

SG Gas under pressure = assay type: physicochemical
Text: In an exemplary procedure for compression, SG Gas is discharged from the apparatus into a hose with a compressor attached. We use a Whirlwind Compressor, Model 2200-2 HPE, manufactured by High Pressure Eng. Co. Inc. A canister with pressure gauges is used to fill the chamber with SG Gas, using a hose to transport the SG Gas from the apparatus and compressor into the canister. We use an empty oxygen tank that has been vacuumed to remove any residual oxygen and water. The empty and vacuumed oxygen tank with pressure valve has a manufacturer name of White Martins, ABRE with dimensions of 23″ diameter and 19″ height. SG Gas is placed under pressure in the compression chamber up to and beyond 1,000 psi. for storage of SG Gas.
Analytical Testing and Observations of SG Gas Under pressure Maximum Pressure: SG Gas imploded when pressures exceeded 1,600 psi.
Safe Pressurization: SG Gas remains safe and stable at pressures around 1,000 psi for over 30 days. SG Gas should remain stable under pressure indefinitely, at least for a sufficient period of time to allow said gas to be utilized at time 30-60 days after generation.

For hydroxyhydrogen [SG Gas], the “algae growth in aquarium tank” value (goldfish) was “less algae growth”, the “growth of goldfish compared with air-aerated aquarium” value (goldfish) was “at least 15%” and the pH (pH test) was 7.6. The “Total Dissolved Solids (TDS)” value [1] was 0.17 ppm, the “storage time over which water remains stable” value [2] was no less than 2 years and the “Maximum Pressure: pressure above which SG Gas imploded” value (SG Gas under pressure) was “exceeded 1,600 psi”. The “time safe and stable under pressure” value (SG Gas under pressure; pressures around 1,000 psi) was “over 30 days”.

From patent US20160175802A1, “METHOD FOR MAKING A GAS FROM AN AQUEOUS FLUID,PRODUCT OF THE METHOD, AND APPARATUS THERFOR” (priority 2007, published 2016)
